Reference: PubChem BioAssay AID2005 (Sanford-Burnham Center for Chemical Genomics, 2009)
Activity calls are given as the source filed them.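 How the source made its calls: active means plate Z score at or below -3, or inhibition of at least 30% at 20 µM; inactive means the rest.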

Assay: EGFP reporter destabilization counter-screen – F442A EGFP cells, fluorescence, counter-screen for p/CIP destabilizer project, dose response (AID 2005);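 further: cells express EGFP alone from a CMV promoter as a counter screen for p/CIP-EGFP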
Details: F442A EGFP cells, EGFP fluorescence, 16 h, stronger effect = higher value

With `Cn1nnnc1SCC(=O)c1cccs1` the inhibition (EGFP decrease, at 10 µM) was 11.4% and the inhibition (at 20 µM) was 9.9% (inactive).

Molecule `CC(C)c1ccc(/C=N/NC(=O)c2cccc(Cl)c2)cc1` has an inhibition (EGFP decrease, at 10 µM) of 16.9% and an inhibition (at 20 µM) of 44.6%.

In the case of `CCOC(=O)C1CCN(C(=O)c2cc(OCC)c(OCC)c(OCC)c2)CC1`, the inhibition (EGFP decrease, at 10 µM) is reported as 10.4% and the inhibition (at 20 µM) is reported as 24.3% (inactive).

With `O=C(NCc1ccc(Cl)cc1)c1ccc(-c2ccccc2C(F)(F)F)o1` the inhibition (EGFP decrease, at 10 µM) was 16.5% and the inhibition (at 20 µM) was -4.8% (inactive).

With `O=c1ccn(Cc2ccccc2Cl)cc1` the inhibition (EGFP decrease, at 10 µM) was 33.3% and the inhibition (at 20 µM) was 14.1% (inactive).

`CC(=O)Nc1cn(C(C)=O)c(C)n1` gave an inhibition (EGFP decrease, at 10 µM) of 5.9% and an inhibition (at 20 µM) of 33.7%.

In the case of `N/C(=N\OC(=O)c1ccc(Cl)cc1Cl)c1ccccc1`, the inhibition (EGFP decrease, at 10 µM) is reported as 10.4% and the inhibition (at 20 µM) is reported as 1.3% (inactive).

With `CCC(=O)Nc1ccccc1Oc1ccccc1` the inhibition (EGFP decrease, at 10 µM) was 12.2% and the inhibition (at 20 µM) was 19.7% (inactive).

For `CS(=O)(=O)c1ccc(S(=O)CC(=O)OCc2ccccc2)c([N+](=O)[O-])c1` (stereo unspecified), the inhibition (EGFP decrease, at 10 µM) was 16% and the inhibition (at 20 µM) was -0.6% (inactive).

In the case of `Cc1nc(SCC(=O)Nc2cc(C)on2)c2c(=O)n(C)c(=O)n(C)c2n1`, the inhibition (EGFP decrease, at 10 µM) is reported as 10% and the inhibition (at 20 µM) is reported as 6.6% (inactive).

With `COc1cc2c(cc1NC(=O)/C=C/c1ccccc1)oc1ccccc12` the inhibition (EGFP decrease, at 10 µM) was 12.4% and the inhibition (at 20 µM) was -0.8% (inactive).

With `COc1cc2c(cc1OC)/C(=C/C#N)NC(C)(C)C2` the inhibition (EGFP decrease, at 10 µM) was 6.8% and the inhibition (at 20 µM) was 8% (inactive).

For `NNC(=O)c1ccc(-c2cccc([N+](=O)[O-])c2)o1`, the inhibition (EGFP decrease, at 10 µM) was 4.6% and the inhibition (at 20 µM) was 9.1% (inactive).

With `COC(=O)c1c(NC(=O)c2ccc(C)cc2)sc(Cc2ccccc2)c1C` the inhibition (EGFP decrease, at 10 µM) was 29.9% and the inhibition (at 20 µM) was -2.4% (inactive).

In the case of `O=C(Nc1cccnc1)c1ccc(Cl)c(S(=O)(=O)N2CCCCCC2)c1`, the inhibition (EGFP decrease, at 10 µM) is reported as 28.5% and the inhibition (at 20 µM) is reported as -6.9% (inactive).

For `COc1ccccc1NC(=S)NNC(=O)c1ccc(Cl)cc1Cl`, the inhibition (EGFP decrease, at 10 µM) was -23.9% and the inhibition (at 20 µM) was 2% (inactive).

In the case of `Cc1nc(-c2ccc(C(=O)Nc3cccc(F)c3)cc2)cs1`, the inhibition (EGFP decrease, at 10 µM) is reported as 30.7% and the inhibition (at 20 µM) is reported as 32.8%.

With `CC(=O)Nc1ccc(SCC(=O)Nc2ccccc2Oc2ccccc2)cc1` the inhibition (EGFP decrease, at 10 µM) was 21.8% and the inhibition (at 20 µM) was 14.4% (inactive).

With `CCN1CCN(c2cc(C)c3cc(NC(=S)N4CC(C)CC(C)C4)ccc3n2)CC1` (stereo unspecified) the inhibition (EGFP decrease, at 10 µM) was 28.8% and the inhibition (at 20 µM) was 12.7% (inactive).

With `CCCc1nc(NCC2CCCO2)c2nnn(Cc3ccccc3)c2n1` (stereo unspecified) the inhibition (EGFP decrease, at 10 µM) was 39% and the inhibition (at 20 µM) was 12.1% (inactive).

In the case of `CC1CCC(NCc2ccco2)CC1` (stereo unspecified), the inhibition (EGFP decrease, at 10 µM) is reported as -0.9% and the inhibition (at 20 µM) is reported as 18.9% (inactive).

In the case of `O=C(NC(=S)NCCc1ccccc1)c1ccco1`, the inhibition (EGFP decrease, at 10 µM) is reported as 9.7% and the inhibition (at 20 µM) is reported as -5.7% (inactive).

For `O=S(=O)(Nc1cc(Sc2ncn[nH]2)c(O)c2ccccc12)c1ccccc1`, the inhibition (EGFP decrease, at 10 µM) was 38.3% and the inhibition (at 20 µM) was 2.2% (inactive).

In the case of `CC(=O)N1c2c(cc(Br)cc2S(=O)(=O)NCc2ccccc2)CC1C` (stereo unspecified), the inhibition (EGFP decrease, at 10 µM) is reported as 26.4% and the inhibition (at 20 µM) is reported as 20.8% (inactive).

With `O=C(NC(=S)NCc1ccccc1)c1ccc(Br)o1` the inhibition (EGFP decrease, at 10 µM) was 23.8% and the inhibition (at 20 µM) was 19.8% (inactive).

For `C[C@@H](C(=O)N1CCN(C(=O)OC(C)(C)C)CC1)n1cc(-c2cn([C@@H](C)C(=O)N3CCN(C(=O)OC(C)(C)C)CC3)nn2)nn1`, the inhibition (EGFP decrease, at 10 µM) was 38.2% and the inhibition (at 20 µM) was 25.3% (inactive).

In the case of `O=C(O)C1=C[C@H](c2cccs2)C[C@H](OCc2ccc(CO)cc2)O1`, the inhibition (EGFP decrease, at 10 µM) is reported as 3.6% and the inhibition (at 20 µM) is reported as -7.3% (inactive).

With `O=C(OCC(=O)N1CCC(Cc2ccccc2)CC1)c1ccccc1` the inhibition (EGFP decrease, at 10 µM) was -1.5% and the inhibition (at 20 µM) was -16% (inactive).

In the case of `Cc1ccc(NC(=O)CC2C(=O)NC3CCCCC3N2C(=O)c2ccc(F)cc2)cc1C` (stereo unspecified), the inhibition (EGFP decrease, at 10 µM) is reported as 12.9% and the inhibition (at 20 µM) is reported as 24.7% (inactive).

In the case of `COc1ccc(C(NC(=O)CC(C)C)c2c(O)ccc3ccccc23)cc1` (stereo unspecified), the inhibition (EGFP decrease, at 10 µM) is reported as 18.1% and the inhibition (at 20 µM) is reported as 5.2% (inactive).

With `CCOc1ccc(N(CC(=O)Nc2cccc(Br)c2)S(C)(=O)=O)cc1` the inhibition (EGFP decrease, at 10 µM) was 36.5% and the inhibition (at 20 µM) was 12.4% (inactive).

In the case of `Cc1cccc(N(CC(=O)NCCc2ccccc2)C(=O)c2csnn2)c1`, the inhibition (EGFP decrease, at 10 µM) is reported as 4.8% and the inhibition (at 20 µM) is reported as 17.2% (inactive).

In the case of `COC(=O)COc1ccc(Oc2nc(SC)nc(N(C)C)n2)nn1`, the inhibition (EGFP decrease, at 10 µM) is reported as 34.2% and the inhibition (at 20 µM) is reported as 29.7% (inactive).

For `C=CCN1C(=O)/C(=C2/Sc3ccccc3N2C)SC1=Nc1ccccc1C`, the inhibition (EGFP decrease, at 10 µM) was 1.3% and the inhibition (at 20 µM) was 8.6% (inactive).

With `CCc1ccc(NC(=O)CCn2c(=O)oc3ccccc32)cc1` the inhibition (EGFP decrease, at 10 µM) was 11.9% and the inhibition (at 20 µM) was 3.3% (inactive).

In the case of `O=C(Cn1c(=O)[nH]c2ccccc2c1=O)N1CCN(c2cccc(Cl)c2)CC1`, the inhibition (EGFP decrease, at 10 µM) is reported as 17.8% and the inhibition (at 20 µM) is reported as 20.5% (inactive).

With `COC(=O)c1cc(NC(=O)CSc2nc(C)cc(=O)[nH]2)cc(C(=O)OC)c1` the inhibition (EGFP decrease, at 10 µM) was 9.8% and the inhibition (at 20 µM) was 23.4% (inactive).

In the case of `CCn1cnc2cc(NCc3cccc(OC)c3O)ccc21`, the inhibition (EGFP decrease, at 10 µM) is reported as 16.7% and the inhibition (at 20 µM) is reported as 10.7% (inactive).
